From ChEMBL document CHEMBL3856194, “N'-((2-(6-bromo-2-oxo-2H-chromen-3-yl)-1H-indol-3-yl)methylene)benzohydrazide as a probable Bcl-2/Bcl-xL inhibitor with apoptotic and anti-metastatic potential” (Eur J Med Chem, 2016)

Assays:
[1] = Cytotoxicity against human MCF7 cells assessed as cell growth inhibition after 48 hrs by MTT assay; format: functional, cell-based; conditions: MCF7, 48 h
MCF7 [2] = test: Induction of apoptosis in human MCF7 cells assessed as late apoptotic cells after 24 to 48 hrs by Annexin V/7-AAD staining based flow cytometry (reference value: 16.05 %); format: functional
[3] = Cell cycle arrest in human MCF7 cells assessed as accumulation at S phase at 0.5 uM after 18 to 24 hrs by propidium iodide staining based flow cytometry (reference value: 8.5 %); format: functional
MCF7 [4] = test: Induction of apoptosis in human MCF7 cells assessed as necrotic cells after 24 to 48 hrs by Annexin V/7-AAD staining based flow cytometry (reference value: 6.75 %); format: functional
[5] = Cell cycle arrest in human MCF7 cells assessed as accumulation at G0/G1 phase at 0.5 uM after 18 to 24 hrs by propidium iodide staining based flow cytometry (reference value: 67 %); format: functional
[6] = Cell cycle arrest in human MCF7 cells assessed as accumulation at sub-G0 phase at 0.5 uM after 18 to 24 hrs by propidium iodide staining based flow cytometry (reference value: 1.4 %); format: functional
[7] = Cell cycle arrest in human MCF7 cells assessed as accumulation at G2/M phase at 0.5 uM after 18 to 24 hrs by propidium iodide staining based flow cytometry (reference value: 18.8 %); format: functional
MCF7 [8] = test: Induction of apoptosis in human MCF7 cells assessed as viable cells after 24 to 48 hrs by Annexin V/7-AAD staining based flow cytometry (reference value: 72.30 %); format: functional
[9] = Cytotoxicity against African green monkey Vero cells assessed as cell growth inhibition after 48 hrs by MTT assay; format: toxicity, cell-based; conditions: African green monkey (Chlorocebus sabaeus)
MCF7 [10] = test: Induction of apoptosis in human MCF7 cells assessed as early apoptotic cells after 24 to 48 hrs by Annexin V/7-AAD staining based flow cytometry (reference value: 4.90 %); format: functional
MCF7 [11] = test: Selectivity index, ratio of IC50 for African green monkey Vero cells to IC50 for human MCF7 cells; format: functional

| SMILES | IC50 [1] [µM] | IC50 at 48 h [9] [µM] | also measured |
| --- | --- | --- | --- |
| CC[C@]1(O)C[C@H]2CN(CCc3c([nH]c4ccccc34)[C@@](C(=O)OC)(c3cc4c(cc3OC)N(C=O)[C@H]3[C@@](O)(C(=O)OC)[C@H](OC(C)=O)[C@]5(CC)C=CCN6CC[C@]43[C@@H]65)C2)C1 [VINCRISTINE] | 0.3 | 0.9 | Activity (MCF7 [2]): 17.7%; Activity [3]: 7.8%; Activity (MCF7 [4]): 23.45%; Activity [5]: 17.9%; Activity [6]: 5.1%; Activity [7]: 54.6%; Activity (MCF7 [8]): 56.1%; Activity (MCF7 [10]): 2.75%; Ratio IC50 (MCF7 [11]): 3 |
| O=C(N/N=C/c1c(-c2cc3ccccc3oc2=O)[nH]c2ccccc12)c1ccccc1Cl | 164 | > 200 | – |
| O=C(N/N=C/c1c(-c2cc3ccccc3oc2=O)[nH]c2ccccc12)c1cccc(Br)c1 | > 200 | > 200 | – |
| O=C(N/N=C/c1c(-c2cc3ccccc3oc2=O)[nH]c2ccccc12)c1ccc(Cl)cc1F | > 200 | > 200 | – |
| O=C(N/N=C/c1c(-c2cc3ccccc3oc2=O)[nH]c2ccccc12)c1ccccc1F | > 200 | > 200 | – |
| O=C(N/N=C/c1c(-c2cc3ccccc3oc2=O)[nH]c2ccccc12)c1ccc(Cl)cc1 | > 200 | > 200 | – |
| O=C(N/N=C/c1c(-c2cc3ccccc3oc2=O)[nH]c2ccccc12)c1ccccc1 | > 200 | 121 | – |
